Results as given in patent publication EP4725957A1, “GROUP OF CYCLIC ALKALINE LIPOPEPTIDE COMPOUNDS, AND PREPARATION METHOD THEREFOR AND USE THEREOF” (Institute of Medicinal Biotechnology, Chinese Academy of …, priority 2023, dated 2024).
Values after ≈ are worked out from the molar mass of the structure shown. Bridge positions count the residues as written; N and C are the ends. Square brackets hold non-standard residues; d marks the D form. Peptide text beside a SMILES is read from it. * marks the point of attachment. Nonanoyl = CCCCCCCCC(=O)*; X1 = CC[C@H](C)CCCCC(=O)*; Heptanoyl = CCCCCCC(=O)*; Octanoyl = CCCCCCCC(=O)*; dDap = NC[C@@H](N)C(=O)O; Dab = NCC[C@H](N)C(=O)O; Dap = NC[C@H](N)C(=O)O

How the values were obtained:
Format in all cases: cell-based
[1] = system: Pseudomonas aeruginosa PAE19-3; conditions: PAE19-3
Method: (§1) The minimal inhibitory concentration (MIC) was determined by the broth microdilution method according to the recommended procedures of the Clinical and Laboratory Standards Institute (CLSI).
(§2) An appropriate amount of the cyclic lipopeptide compounds prepared in Examples 1-120 and the reference standards were weighed and dissolved in sterile pure water. An appropriate volume of the mother solution was subjected to ten-fold dilution with sterile Mueller-Hinton (MH) broth to a concentration of 0.256 mg/mL. Half of the drug solution was aliquoted into 96-well reagent reservoirs, while the other half was subjected to two-fold serial dilution with sterile MH broth before being transferred into deep-well reagent reservoirs. The above steps were repeated, so that the drug concentrations in the reagent reservoirs were adjusted to 128, 64, 32, 16, 8, 4, 2, 1, 0.5, 0.25, 0.125 and 0.06 mg/L in sequence, and all solutions were prepared and used immediately. Several colonies were picked from agar plates cultured for 18-24 h and directly suspended in sterile normal saline, and the concentration of the bacterial suspension was adjusted to 0.5 McFarland units. The calibrated bacterial suspension was diluted with MH broth to a concentration of (4-8) × 10^5 colony-forming units per milliliter (CFU/mL) and prepared and used immediately. A volume of 100 µL of the aforementioned compounds of the present disclosure (e.g., the compounds prepared in the examples) and reference solutions at different concentrations was separately pipetted into wells 1 to 12 of sterile 96-well polystyrene plates, and an additional 100 µL of the aforementioned inoculum was added to each well. The final concentrations of the samples in the wells were adjusted to 64, 32, 16, 8, 4, 2, 1, 0.5, 0.25, 0.125, 0.06 and 0.03 mg/L, respectively, and the final concentration of the inoculum in each well was (2-4) × 10^5 CFU/mL. Additional growth control wells were set up, each containing 100 µL of the inoculum and 100 µL of sterile MH broth. The test substances and inocula in all wells were mixed thoroughly and then sealed. The inoculated 96-well plates were incubated in an incubator at 35-37°C for 16-20 h.
(§3) The strains used for the antibacterial activity assay were obtained from the American Type Culture Collection (ATCC) and clinical isolates.
(§4) The strains employed for the antibacterial activity assay included Escherichia coli ATCC BAA-2523, ATCC BAA-2340 (KPC), Klebsiella pneumoniae KPN+19-15, ATCC BAA-1705 (KPC), Pseudomonas aeruginosa PAE19-3, ATCC 27853, Acinetobacter baumannii ABA19-1, and NCTC 13304 (OXA-27).

[2] = system: Acinetobacter baumannii NCTC 13304 (OXA-27); conditions: NCTC 13304
Method: as §1, §2, §3, §4

[3] = system: Escherichia coli ATCC BAA-2340 (KPC); conditions: ATCC BAA-2340
Method: as §1, §2, §3, §4

[4] = system: Klebsiella pneumoniae ATCC BAA-1705 (KPC); conditions: ATCC BAA-1705
Method: as §1, §2, §3, §4

[5] = system: Acinetobacter baumannii ABA19-1; conditions: ABA19-1
Method: as §1, §2, §3, §4

[6] = system: Pseudomonas aeruginosa ATCC 27853; conditions: ATCC 27853
Method: as §1, §2, §3, §4

[7] = system: Escherichia coli ATCC BAA-2523; conditions: ATCC BAA-2523
Method: as §1, §2, §3, §4

[8] = system: Klebsiella pneumoniae KPN+19-15; conditions: KPN+19-15
Method: as §1, §2, §3, §4

[9] = Nephrotoxicity assay: in vitro cytotoxicity of HK-2 cells by CCK-8 assay; conditions: human, HK-2 cells (human renal), 72 h incubation with drug-containing medium
Method: In vitro cytotoxicity detection of HK-2 cells was performed by the CCK-8 assay.
The culture medium for human renal HK-2 cells was a complete RPMI-1640 medium (Invitrogen) supplemented with 10% fetal bovine serum (FBS, Gibco). The cryopreservation solution was composed of 90% FBS and 10% dimethyl sulfoxide (DMSO), and the cells were preserved long-term in liquid nitrogen. Cells were cultured in a sterile incubator with a humidified atmosphere containing 5% CO2 at 37°C. When the cell density reached 70%-80%, cell digestion and subculture were conducted. The cyclic lipopeptide compounds prepared in Examples 1-120 were weighed and dissolved in sterile water to prepare a mother solution with a concentration of 1 mg/mL. Drug-containing culture media were then formulated, with the final concentrations set as 500, 250, 200, 100, 50, 25, and 12.5 µg/mL, respectively. Cells were adjusted to a density of 5 × 10^4 cells/mL and seeded into 96-well plates, with 100 µL of cell suspension added to each well. After stable incubation for 24 h, the original medium was replaced with the prepared drug-containing medium, and the plates were incubated in the incubator for an additional 72 h. The medium was gently aspirated, and 100 µL of blank medium containing 10% CCK-8 was added to each well. After incubation in the incubator for 3 h, the optical density (OD) values at 450 nm were measured using a BIOTEK microplate reader. The experiment was repeated three times. For each replicate, polymyxin B was set as the positive drug, and a drug-free blank group was established as the control. The cell viability (%) was calculated by the formula: Cell viability (%) = [(OD of drug-treated group - OD of zero-setting) / (OD of drug-free group - OD of zero-setting)] × 100%. The half-maximal inhibitory concentration (IC50) values were calculated through logarithmic regression analysis.
The cells used for the nephrotoxicity assay were obtained from the ATCC ( American Type Culture Collection). The Cell Counting Kit-8 (CCK-8) used in the assay was supplied by Beyotime Biotechnology Co., Ltd.

CC[C@H](C)CCCCC(=O)N[C@@H](CCN)C(=O)N[C@H](C(=O)N[C@H](CN)C(=O)N[C@H]1CCNC(=O)[C@H]([C@@H](C)O)NC(=O)[C@H](CCN)NC(=O)[C@H](CCN)NC(=O)[C@H]([C@@H](C)O)NC(=O)[C@@H](Cc2ccccc2)NC(=O)[C@H](CCN)NC1=O)[C@@H](C)O [Compound 1, (S)-6-methyloctanoyl-Dab-Thr-D-Dap-ring(4-10)[Dab-Dab-D-Phe-Thr-Dab-Dab-Thr]] (X1-[Dab]T[dDap][Dab][Dab][dF]T[Dab][Dab]T; lactam 4-C)
MIC [1]: 0.125 µg/mL (≈ 0.106 µM) | MIC [2]: ≤0.03 µg/mL | MIC [3]: ≤0.03 µg/mL | MIC [4]: ≤0.03 µg/mL | MIC [5]: ≤0.03 µg/mL | MIC [6]: 0.03 µg/mL (≈ 0.0255 µM) | MIC [7]: ≤0.03 µg/mL | MIC [8]: ≤0.03 µg/mL | IC50 at 72 h [9]: > 500 µg/mL

CCCCCCCC(=O)N[C@@H](CCN)C(=O)N[C@H](C(=O)N[C@H](CN)C(=O)N[C@H]1CCNC(=O)[C@H]([C@@H](C)O)NC(=O)[C@H](CCN)NC(=O)[C@H](CCN)NC(=O)[C@H]([C@@H](C)O)NC(=O)[C@@H](Cc2ccccc2)NC(=O)[C@H](CCN)NC1=O)[C@@H](C)O [Compound 3, Octanoyl-Dab-Thr-D-Dap-ring(4-10)[Dab-Dab-D-Phe-Thr-Dab-Dab-Thr]] (Octanoyl-[Dab]T[dDap][Dab][Dab][dF]T[Dab][Dab]T; lactam 4-C)
MIC [1]: 0.25 µg/mL (≈ 0.215 µM) | MIC [2]: ≤0.03 µg/mL | MIC [3]: ≤0.03 µg/mL | MIC [4]: ≤0.03 µg/mL | MIC [5]: ≤0.03 µg/mL | MIC [6]: 0.03 µg/mL (≈ 0.0258 µM) | MIC [7]: ≤0.03 µg/mL | MIC [8]: ≤0.03 µg/mL | IC50 at 72 h [9]: > 500 µg/mL

CCCCCCC(=O)N[C@@H](CCN)C(=O)N[C@H](C(=O)N[C@H](CN)C(=O)N[C@H]1CCNC(=O)[C@H]([C@@H](C)O)NC(=O)[C@H](CCN)NC(=O)[C@H](CCN)NC(=O)[C@H]([C@@H](C)O)NC(=O)[C@@H](Cc2ccccc2)NC(=O)[C@H](CCN)NC1=O)[C@@H](C)O [Compound 4, Heptanoyl-Dab-Thr-D-Dap-ring(4-10)[Dab-Dab-D-Phe-Thr-Dab-Dab-Thr]] (Heptanoyl-[Dab]T[dDap][Dab][Dab][dF]T[Dab][Dab]T; lactam 4-C)
MIC [1]: 0.25 µg/mL (≈ 0.218 µM) | MIC [2]: 0.03 µg/mL (≈ 0.0261 µM) | MIC [3]: 0.03 µg/mL (≈ 0.0261 µM) | MIC [4]: 0.03 µg/mL (≈ 0.0261 µM) | MIC [5]: 0.03 µg/mL (≈ 0.0261 µM) | MIC [6]: 0.03 µg/mL (≈ 0.0261 µM) | MIC [7]: 0.03 µg/mL (≈ 0.0261 µM) | MIC [8]: 0.03 µg/mL (≈ 0.0261 µM) | IC50 at 72 h [9]: > 500 µg/mL

CCCCCCCCC(=O)N[C@@H](CCN)C(=O)N[C@H](C(=O)N[C@H](CN)C(=O)N[C@H]1CCNC(=O)[C@H]([C@@H](C)O)NC(=O)[C@H](CCN)NC(=O)[C@H](CCN)NC(=O)[C@H]([C@@H](C)O)NC(=O)[C@@H](Cc2ccccc2)NC(=O)[C@H](CCN)NC1=O)[C@@H](C)O [Compound 5, Nonanoyl-Dab-Thr-D-Dap-ring(4-10)[Dab-Dab-D-Phe-Thr-Dab-Dab-Thr]] (Nonanoyl-[Dab]T[dDap][Dab][Dab][dF]T[Dab][Dab]T; lactam 4-C)
MIC [1]: 0.5 µg/mL (≈ 0.425 µM) | MIC [2]: 0.06 µg/mL (≈ 0.051 µM) | MIC [3]: 0.06 µg/mL (≈ 0.051 µM) | MIC [4]: 0.06 µg/mL (≈ 0.051 µM) | MIC [5]: 0.06 µg/mL (≈ 0.051 µM) | MIC [6]: 0.06 µg/mL (≈ 0.051 µM) | MIC [7]: 0.06 µg/mL (≈ 0.051 µM) | MIC [8]: 0.06 µg/mL (≈ 0.051 µM) | IC50 at 72 h [9]: 380 ± 30.5 µg/mL (≈ 323 µM)

CC[C@H](C)CCCCC(=O)N[C@@H](CCN)C(=O)N[C@H](C(=O)N[C@@H](CN)C(=O)N[C@H]1CCNC(=O)[C@H]([C@@H](C)O)NC(=O)[C@H](CCN)NC(=O)[C@H](CCN)NC(=O)[C@H]([C@@H](C)O)NC(=O)[C@@H](Cc2ccccc2)NC(=O)[C@H](CCN)NC1=O)[C@@H](C)O [Compound 6, (S)-6-methyloctanoyl-Dab-Thr-Dap-ring(4-10)[Dab-Dab-D-Phe-Thr-Dab-Dab-Thr]] (X1-[Dab]T[Dap][Dab][Dab][dF]T[Dab][Dab]T; lactam 4-C)
MIC [1]: 0.125 µg/mL (≈ 0.106 µM) | MIC [2]: ≤0.03 µg/mL | MIC [3]: ≤0.03 µg/mL | MIC [4]: ≤0.03 µg/mL | MIC [5]: ≤0.03 µg/mL | MIC [6]: 0.03 µg/mL (≈ 0.0255 µM) | MIC [7]: ≤0.03 µg/mL | MIC [8]: ≤0.03 µg/mL | IC50 at 72 h [9]: > 500 µg/mL
